Experiments:
OT-1 CD8+ T cells = experiment: Adoptive transfer of OT-1 T cells and immunization of C57BL/6 mice, marker expression on splenic OT-1 T cells; format: in vivo; conditions: OVA or FT peptide immunization with TLR ligand versus peptide alone; splenocytes up to 14 days; early after T-cell activation
From the text: Vaccine type can affect expression of T-cell checkpoint molecules on activated CD8+ T cells: This Example used an ovalbumin vaccination model. OT-1 cells were adoptively transferred to naïve C57BL/6 mice. The day after transfer, mice were immunized once with (a) DNA encoding ovalbumin, (b) Listeria monocytogenes (Lm) encoding ovalbumin, (c) OVA257-264 peptide (SIINFEKL (SEQ ID NO:1)), (d) SIINFEKL peptide (SEQ ID NO:1) with DNA vector, (e) DNA vector alone, (f) Lm encoding control vector with no antigen, or (g) NS (non-specific) peptide. Splenocytes were collected the day after vaccination for expression of cell surface markers on antigen-specific OT-1 cells. […] LAG-3 expression was not reduced in the presence of Lm co-administered with peptide.
TLR stimulation at the time of T-cell activation reduced expression of PD-1 in vivo: To determine whether TLR stimulation at the time of T-cell activation with vaccination elicited a similar reduction in PD-1 in vivo, OT-1 cells were adoptively transferred to naïve C57BL/6 mice as above, and immunized once with OVA or FT peptide (or non-specific peptide) one day later in the presence or absence of a TLR 1/2, TLR7, or TLR9 ligand. Splenocytes were collected from groups up to 14 days after immunization and evaluated for expression of 4-1BB, PD-1 and LAG-3.
Adoptive transfer and immunization of wild type C57BL/6 (B6) mice: OT-1 splenocytes were harvested and CD8+ T cells were isolated as described above. 2×10^6 OT-1 T cells were adoptively transferred into 6- to 10-week old female B6 mice via intraperitoneal injection. The day following transfer, mice were immunized subcutaneously with 100 μg SIINFEKL peptide (SEQ ID NO:1) in PBS without adjuvant, intradermally with 100 μg plasmid encoding full length secreted chicken egg ovalbumin (pCI-neo-sOVA (psOVA), Addgene plasmid #25098, Cambridge, MA), intraperitoneally with 5×10^6 cfu of a Listeria monocytogenes vector encoding ovalbumin (Lm-OVA, gift of JD Sauer), or vehicle or corresponding wild-type Lm or DNA plasmid vector. TLR agonists were co-injected with the vaccine at the following concentrations: 20 μg/mouse Pam3CSK4, 100 μg/mouse Gardiquimod, 50 μg/mouse ODN 1826, or vehicle. Mice were euthanized at the times indicated. Spleens were collected, processed as described above, and T-cell populations analyzed by flow cytometry. Data collected on different days were normalized using rainbow beads (Spherotech, Lake Forest, IL; RFP-30-5A).

[1] = tested on: purified OT-1 CD8+ T cells; experiment: In vitro co-culture / conditioned medium experiments with APC and OT-1 CD8+ T cells; format: cell-based, mice; conditions: purified DC or B cells pre-treated with TLR agonist, SIINFEKL, 24 hours
Description: FIGS. 14A-14D. Changes in PD-1 expression following TLR stimulation are mediated by IL-12 secreted from APCs. Panel A: Purified OT-1 T cells (T), B cells (B), or dendritic cells (DC) were activated with SIINFEKL peptide (SEQ ID NO:1, OVA) or with a non-specific peptide (NS) in the presence of either TLR1/2 (TLR1/2) agonist, TLR7 agonist (TLR7), or media alone. After 24 hours, cells were washed and co-cultured with naïve purified OT-1 CD8+ T cells for an additional 24 hours and then assessed for expression of the indicated surface receptors (4-1BB, CD3, PD-1, LAG3, CTLA-4, and TIM3) by flow cytometry. Shown is the MFI for each marker, with samples assessed in triplicate. Panel B: Purified DC were stimulated in the presence of TLR1/2 agonist, TLR7 agonist, or media alone. […] After 24 hours, cells were assessed for expression of the indicated surface receptors (4-1BB, PD-1, LAG3, and CTLA-4) by flow cytometry. Shown is mean and standard error of the MFI for each marker, with samples assessed in triplicate. […] Culture supernatant was then evaluated for the presence of IL12 p70 by ELISA. […] After 24 hours, cells were assessed for expression of the indicated surface receptors (4-1BB, PD-1, LAG3, and CTLA-4) by flow cytometry. Shown is mean and standard error of the MFI for each marker, with samples assessed in triplicate and are representative of two similar experiments. […]

Row | Compound | PD-1 expression on OT-1 CD8+ T cells in vivo (OT-1 CD8+ T cells) | PD-1 expression on OT-1 T cells activated with TLR-agonist-treated APC [1]
1 | CCNCc1nc2c(N)nc3ccccc3c2n1CC(C)(C)O [Gardiquimod] | significantly reduced | reduced
2 | Pam3CSK4 | significantly reduced | reduced
